According to PubChem BioAssay (NCI):
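1) Cells in 96-well plates. 2) Compound, 48 h, 5 concentrations. 3) Linear interpolation between surrounding doses. 4) Unreached endpoint = highest concentration. GI50 = concentration required for 50% inhibition of growth. TGI marks complete inhibition of growth.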

Experiments:
Assay in all cases: NCI anticancer screen, dose series, 48 h
ACHN renal = tested on: ACHN renal
NCI-H460 lung = tested on: NCI-H460 lung
KM12 colon = tested on: KM12 colon
A498 renal = tested on: A498 renal
SF-539 CNS = tested on: SF-539 CNS
SW-620 colon = tested on: SW-620 colon
LOX IMVI melanoma = tested on: LOX IMVI melanoma
EKVX NSCLC = tested on: EKVX NSCLC
NCI-H23 lung = tested on: NCI-H23 lung
SK-MEL-2 melanoma = tested on: SK-MEL-2 melanoma

| Structure (SMILES) | TGI (ACHN renal) | TGI (NCI-H460 lung) | TGI (KM12 colon) | TGI (A498 renal) | TGI (SF-539 CNS) | TGI (SW-620 colon) | TGI (LOX IMVI melanoma) | TGI (EKVX NSCLC) | TGI (NCI-H23 lung) | TGI (SK-MEL-2 melanoma) | GI50 (ACHN renal) | GI50 (KM12 colon) | GI50 (A498 renal) | GI50 (SF-539 CNS) | GI50 (SW-620 colon) | GI50 (SK-MEL-2 melanoma) | GI50 (LOX IMVI melanoma) | GI50 (EKVX NSCLC) | GI50 (NCI-H23 lung) |
| --- | --- | --- | --- | --- | --- | --- | --- | --- | --- | --- | --- | --- | --- | --- | --- | --- | --- | --- | --- |
| O=c1cc(O)c2ccccc2o1 | > 100 µM | > 100 µM | > 100 µM | > 100 µM | > 100 µM | > 100 µM | > 100 µM | > 100 µM | > 100 µM |  |  |  |  |  |  |  |  |  |  |
| CCOC(=O)NC | > 100 µM | > 100 µM | > 100 µM | > 100 µM | > 100 µM | > 100 µM | > 100 µM | > 100 µM | > 100 µM | > 100 µM |  |  |  |  |  |  |  |  |  |
| CC1(O)CC23CC1CCC2(C)C12CCCC(C)(C(=O)O1)C2CC3O (stereo not drawn) | > 100 µM | > 100 µM | > 100 µM | > 100 µM | > 100 µM | > 100 µM | > 100 µM | > 100 µM | > 100 µM | > 100 µM |  |  |  |  |  |  |  |  |  |
| COc1cc(O)c2c(c1)C(=O)c1cc(C)cc(O)c1C2=O | > 100 µM | > 100 µM | > 100 µM | > 100 µM | > 100 µM | > 100 µM | > 100 µM | > 100 µM | > 100 µM | > 100 µM |  |  |  |  |  |  |  |  |  |
| O=C1c2ccccc2C(=O)c2c1ccc(C(=O)O)c2-c1ccc2ccccc2c1 | > 100 µM | > 100 µM | > 100 µM | 85.5 µM | 50.4 µM | 89.5 µM | 41.6 µM | 81 µM | 46.5 µM | 48.5 µM |  |  |  |  |  |  |  |  |  |
| Cc1cc(=O)oc2c1cc(OCC(=O)OCCN1CCCCC1)c1occ(C)c12 | > 100 µM | > 100 µM | > 100 µM | > 100 µM | > 100 µM | > 100 µM | > 100 µM | > 100 µM | > 100 µM | > 100 µM |  |  |  |  |  |  |  |  |  |
| Nc1nnc(N)n1NC(=O)C(=O)Nc1ccc([N+](=O)[O-])cc1 | > 100 µM | > 100 µM | > 100 µM | > 100 µM | > 100 µM | > 100 µM | > 100 µM | > 100 µM | > 100 µM | > 100 µM |  |  |  |  |  |  |  |  |  |
| COc1cc(C)c2c(=O)c3c(oc2c1)C(=O)c1c(O)c(OC)cc(O)c1C3=O |  | 3.97 µM | 11.9 µM | 5.54 µM | 4.19 µM | 10.7 µM | 1.24 µM | 3.25 µM | 3.38 µM | 1.88 µM |  |  |  |  |  |  |  |  |  |
| Fc1ccc(-c2nnc3sc(COc4ccccc4Cl)nn23)cc1Cl | > 100 µM |  | > 100 µM | 93.6 µM | > 100 µM | 74.5 µM | 31.6 µM | > 100 µM | > 100 µM | > 100 µM | 32.7 µM | 77.1 µM | 34.6 µM | 41.4 µM | 30.2 µM | 51.8 µM | 16.5 µM | 39.2 µM | 33.4 µM |
| c1ccc2sc(SCN(C3CCCCC3)C3CCCCC3)nc2c1 | > 100 µM | > 100 µM | > 100 µM | > 100 µM |  | > 100 µM | > 100 µM | > 100 µM | > 100 µM | > 100 µM |  |  |  |  |  |  |  |  |  |
| O=C(O)C1=NNC(C(=O)O)=NN1 | > 100 µM | > 100 µM | > 100 µM |  | > 100 µM | > 100 µM | > 100 µM | > 100 µM | > 100 µM | > 100 µM |  |  |  |  |  |  |  |  |  |
| NC(=O)Nc1cc(O)ccc1N=Nc1ccc(S(=O)(=O)Nc2ccccn2)cc1 | > 100 µM | > 100 µM | > 100 µM | > 100 µM | > 100 µM | > 100 µM | > 100 µM | > 100 µM | > 100 µM | > 100 µM |  |  |  |  |  |  |  |  |  |
| COc1c(Cl)cc(S(=O)O)cc1Cl | > 100 µM | > 100 µM | > 100 µM | > 100 µM | > 100 µM |  | > 100 µM | > 100 µM | > 100 µM | > 100 µM |  |  |  |  |  |  |  |  |  |
